# Results as given in patent publication US9714247B2, “Multiple kinase pathway inhibitors” (Mannkind Corporation, priority 2012, dated 2017).
# Read-outs that look alike come from different tables or passages of the source.
# How the values were obtained:
# [1] = tested on: phosphorylation of SFKs in Ramos cells; assay: SFK phosphorylation (Tyr 416) by flow cytometry; format: cell-based, human; conditions: Homo sapiens, 0.3 uM, flow cytometry, SFK phosphorylated at Tyr 416, read-out: pSRC % inhibition
# Method: Ramos cell lysates from stimulated and unstimulated cells were analyzed for the levels of phosphorylated SRC family members. As described in Example 82 (above), cells were pretreated for 2 hours with an amino naphthyridinones and then stimulated with anti-IgM antibody and H2O2, protein lysates were prepared, quantified and used for Western blotting. A commercially available antibody that detects Src phosphorylated at Tyr 416 (Cell Signalling) and may cross-react with other Src family members such as Lyn, Fyn, Lck, Yes and Hck when phosphorylated at equivalent sites was used for Western blot analysis. The molecular weights of SFK family members are quite similar (in the 55-60 kDa range) and different family members cannot be resolved by the conditions used for the Western blot. […] The procedure can be similarly adapted for flow cytometric analysis as with the PLC-γ2 assay in Example 82. Ramos cells were incubated with Compound 1 for 2 hrs in RPMI media with 5% FBS prior to stimulation stimulated with H2O2/anti-IgM/F(Ab) for 10 minutes. Cells were evaluated by FACS analysis using anti-pSRC antibody and FITC-conjugated goat anti-rabbit secondary antibody following overnight storage at 4° C. in BD perm/wash buffer.
# Ramos cells were prepared for flow cytometry analysis as described in example 82, and stained with a commercially available antibody that detects SFK phosphorylated at Tyr 416, followed by Alexa Fluor 488 conjugated secondary antibody. […] Thus amino naphthyridinones are useful in the inhibition of the phosphorylation of SFKs.
# DoHH2 = assay: CellTiter-Glo proliferation/viability assay; format: cell-based, human; conditions: Homo sapiens, DOHH-2; 48 hrs; read-out: DoHH2 EC50
# BTK = BTK (Homo sapiens (Human), UniProt Q06187)
# [2] = tested on: PLCγ2 phosphorylation in Ramos cells; assay: PLCγ2 phosphorylation by flow cytometry; format: cell-based, human; conditions: Homo sapiens, 0.3 uM, flow cytometry, anti-phospho PLCγ2 (Tyr759), read-out: pPLCγ % inhibition
# Procedure, shortened: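 Ramos cells starved 18 h in 1% FBS, pretreated with inhibitor 2 h, then stimulated with anti-IgM (10 ug/ml final) plus 3.3 mM H2O2 for 2 min, then cross-linking F(ab) (10 ug/ml) plus H2O2 for 8 min. Fixed, permeabilized cells stained with PE anti-phospho-PLCγ2 (Tyr1217 or Tyr759), dead cells gated out; ED50 from geometric mean fluorescence over four inhibitor concentrations.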
# Ramos = assay: CellTiter-Glo proliferation/viability assay; format: cell-based, human; conditions: Homo sapiens, Ramos, read-out: Ramos EC50
# RBL-2H3 cells = assay: Degranulation (β-hexosaminidase release) colorimetric assay; format: cell-based; conditions: Rattus norvegicus, RBL-2H3, IgE / DNP-BSA
# From the text: Crosslinking of IgE receptors leads to induction of intracellular signal transduction pathways and degranulation of mast cells and basophils leading to the release of histamine, serotonin and cytokines that constitutes an allergic reaction. […] One of the factors secreted on induction of degranulation is β-hexosaminidase. A colorimetric assay using 4-nitrophenyl N-acetyl-3-D-glucosaminide (Sigma-Aldrich) as a substrate was used to estimate the amount of enzyme secreted upon degranulation. In brief, RBL-2H3 (ATCC # CRL 2256) cells were plated overnight in the presence of IgE (monoclonal anti-dinitrophenyl antibody from Sigma-Aldrich). The next day, cells were treated with compounds in cell culture media, washed and treated with DNP-BSA for 1 hour (Sigma-Aldrich) in Tyrodes's buffer to induce degranulation. The level of 3-hexosaminidase was analyzed in cell-free supernates and cell lysates and the amount of β-hexosaminidase released was calculated. EC50 values were generated using varying concentrations of inhibitors. […] Thus amino naphthyridinones can be used to inhibit immunologic functions such as degranulation.
# Src [3] = molecular target: T1, Src (Homo sapiens (Human), UniProt P12931); conditions: read-out: Src IC50
# Lyn [4] = molecular target: T2, Lyn (Homo sapiens (Human), UniProt P07948); conditions: read-out: Lyn IC50
# Src [5] = molecular target: T1, Src; assay: biochemical
# Lyn [6] = molecular target: T2, Lyn; assay: biochemical; conditions: Lyn IC50
# Chain of BTK (Q06187 whole entry): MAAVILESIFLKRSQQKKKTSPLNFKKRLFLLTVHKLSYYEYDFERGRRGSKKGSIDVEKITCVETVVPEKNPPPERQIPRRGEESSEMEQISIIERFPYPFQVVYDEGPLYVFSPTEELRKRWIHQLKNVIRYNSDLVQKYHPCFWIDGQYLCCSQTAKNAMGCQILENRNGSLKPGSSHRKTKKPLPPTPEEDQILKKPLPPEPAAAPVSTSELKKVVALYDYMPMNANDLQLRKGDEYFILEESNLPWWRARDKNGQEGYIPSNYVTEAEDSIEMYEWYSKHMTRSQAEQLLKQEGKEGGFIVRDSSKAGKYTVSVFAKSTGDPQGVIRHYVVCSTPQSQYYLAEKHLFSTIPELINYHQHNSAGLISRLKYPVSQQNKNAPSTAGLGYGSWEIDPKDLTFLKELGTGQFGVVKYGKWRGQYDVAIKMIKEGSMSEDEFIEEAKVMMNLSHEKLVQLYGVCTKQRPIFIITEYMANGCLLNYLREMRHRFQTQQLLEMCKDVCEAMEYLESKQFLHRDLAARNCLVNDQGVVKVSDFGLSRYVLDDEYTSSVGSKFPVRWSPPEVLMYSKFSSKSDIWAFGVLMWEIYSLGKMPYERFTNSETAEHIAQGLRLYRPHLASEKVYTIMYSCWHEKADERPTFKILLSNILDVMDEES
# T2 sequence (P07948 whole entry): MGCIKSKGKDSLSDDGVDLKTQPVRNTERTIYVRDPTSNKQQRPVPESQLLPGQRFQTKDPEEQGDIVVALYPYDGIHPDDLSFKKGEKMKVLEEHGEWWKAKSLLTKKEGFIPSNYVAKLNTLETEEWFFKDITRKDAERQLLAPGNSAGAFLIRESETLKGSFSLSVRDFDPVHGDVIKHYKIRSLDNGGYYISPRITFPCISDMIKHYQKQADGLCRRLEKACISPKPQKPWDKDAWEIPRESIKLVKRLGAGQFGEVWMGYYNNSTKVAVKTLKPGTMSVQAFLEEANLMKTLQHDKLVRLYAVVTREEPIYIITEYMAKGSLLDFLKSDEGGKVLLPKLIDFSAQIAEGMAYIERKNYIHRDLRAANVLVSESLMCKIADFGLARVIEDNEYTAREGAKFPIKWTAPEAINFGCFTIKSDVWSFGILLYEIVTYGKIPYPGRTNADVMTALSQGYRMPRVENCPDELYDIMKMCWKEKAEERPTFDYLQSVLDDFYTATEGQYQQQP
# T1 sequence (P12931 whole entry, looked up): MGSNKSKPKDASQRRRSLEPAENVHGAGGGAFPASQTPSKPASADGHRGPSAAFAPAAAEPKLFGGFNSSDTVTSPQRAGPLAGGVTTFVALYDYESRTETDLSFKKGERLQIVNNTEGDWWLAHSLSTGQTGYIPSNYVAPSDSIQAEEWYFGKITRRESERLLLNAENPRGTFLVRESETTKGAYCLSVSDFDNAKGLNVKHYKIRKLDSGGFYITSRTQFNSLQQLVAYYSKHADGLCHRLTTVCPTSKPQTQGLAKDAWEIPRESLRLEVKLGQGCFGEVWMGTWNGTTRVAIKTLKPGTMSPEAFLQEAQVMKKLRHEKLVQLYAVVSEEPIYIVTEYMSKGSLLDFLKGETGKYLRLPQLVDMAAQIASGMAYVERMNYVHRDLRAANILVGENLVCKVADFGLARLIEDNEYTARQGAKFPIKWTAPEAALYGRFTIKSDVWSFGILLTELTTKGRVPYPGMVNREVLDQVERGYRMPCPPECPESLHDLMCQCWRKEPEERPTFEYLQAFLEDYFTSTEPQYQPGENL
SMILES,IC50 (BTK) [nM],EC50 (Ramos; 48 hrs) [nM],EC50 (RBL-2H3 cells) [nM],EC50 (Ramos; 48 h) [nM],IC50 (Src [5]) [nM],IC50 (Lyn [6]) [nM],inhibition at 0.3 µM [1] [%],EC50 (DoHH2) [nM],inhibition at 0.3 µM [2] [%],IC50 (BTK; read-out: BTK IC50) [nM],IC50 (Src [3]) [nM],IC50 (Lyn [4]) [nM]
"CCn1c(=O)c(-c2c(F)cccc2F)cc2cnc(Nc3ccc(N(C)C4CCN(C)CC4)cn3)cc21 [Compound 95, 3-(2,6-difluorophenyl)-1-ethyl-7-((5-(methyl(1-methylpiperidin-4-yl)amino)pyridin-2-yl)amino)-1,6-naphthyridin-2(1H)-one]",,,2220,1000 to 10000,,,56,< 1000,87,< 100,< 100,< 100
"CCN(CC)CCOc1ccc(Nc2cc3c(cn2)cc(-c2c(Cl)cccc2Cl)c(=O)n3CC)nc1 [Compound 101, 3-(2,6-dichlorophenyl)-7-((5-(2-(diethylamino)ethoxy)pyridin-2-yl)amino)-1-ethyl-1,6-naphthyridin-2(1H)-one]",,1000 to 10000,950,,,,70,< 1000,92,< 100,< 100,< 100
"CCn1c(=O)c(-c2c(O)cccc2F)cc2cnc(Nc3ccc(N(C)C4CCN(C)CC4)cn3)cc21 [Compound 120, 1-ethyl-3-(2-fluoro-6-hydroxyphenyl)-7-((5-(methyl(1-methylpiperidin-4-yl)amino)pyridin-2-yl)amino)-1,6-naphthyridin-2(1H)-one]",,1000 to 10000,2220,,,,57,< 1000,87,< 100,< 100,< 100
"COCCn1c(=O)c(-c2c(F)cccc2F)cc2cnc(Nc3ccc(N(C)C4CCN(C)CC4)cn3)cc21 [Compound 129, 3-(2,6-difluorophenyl)-1-(2-methoxyethyl)-7-((5-(methyl(1-methylpiperidin-4-yl)amino)pyridin-2-yl)amino)-1,6-naphthyridin-2(1H)-one]",,1000 to 10000,> 5000,,,,66,< 1000,88,< 100,< 100,< 100

# Further lines, with some results ahead:
IC50 (BTK) [nM],EC50 (Ramos; 48 hrs) [nM],EC50 (RBL-2H3 cells) [nM],EC50 (Ramos; 48 h) [nM],IC50 (Src [5]) [nM],IC50 (Lyn [6]) [nM],SMILES,inhibition at 0.3 µM [1] [%],EC50 (DoHH2) [nM],inhibition at 0.3 µM [2] [%],IC50 (BTK; read-out: BTK IC50) [nM],IC50 (Src [3]) [nM],IC50 (Lyn [4]) [nM]
100 to 1000,> 10000,> 5000,,,,"CC(C)n1c(=O)c(-c2c(F)cccc2F)cc2cnc(Nc3ccc(F)cn3)cc21 [Compound 78, 3-(2,6-difluorophenyl)-7-((5-fluoropyridin-2-yl)amino)-1-isopropyl-1,6-naphthyridin-2(1H)-one]",8,< 1000,55,,,
,1000 to 10000,2990,,,,"CCN(CC)CCOc1ccc(Nc2cc3c(cn2)cc(-c2ccc(F)cc2C)c(=O)n3CC)nc1 [Compound 99, 7-((5-(2-(diethylamino)ethoxy)pyridin-2-yl)amino)-1-ethyl-3-(4-fluoro-2-methylphenyl)-1,6-naphthyridin-2(1H)-one]",40,< 1000,83,< 100,< 100,< 100
,,> 5000,> 10000,100 to 1000,100 to 1000,"CN1CC[C@H](n2c(=O)c(-c3c(F)cccc3F)cc3cnc(Nc4ccc(F)cn4)cc32)C1 [Compound 150, (S)-3-(2,6-difluorophenyl)-7-((5-fluoropyridin-2-yl)amino)-1-(1-methylpyrrolidin-3-yl)-1,6-naphthyridin-2(1H)-one]",,1000 to 10000,,,,
,,> 5000,> 10000,100 to 1000,100 to 1000,"CN1CC[C@@H](n2c(=O)c(-c3c(F)cccc3F)cc3cnc(Nc4ccc(F)cn4)cc32)C1 [Compound 152, (R)-3-(2,6-difluorophenyl)-7-((5-fluoropyridin-2-yl)amino)-1-(1-methylpyrrolidin-3-yl)-1,6-naphthyridin-2(1H)-one]",,< 1000,,,,
